Data reported in the Deep4Chem optical property database.

Test: photoluminescence quantum yield (fraction); solvent given as SMILES
[1] = in O=P(c1ccccc1)(c1ccccc1)c1ccccc1Oc1ccccc1P(=O)(c1ccccc1)c1ccccc1

CSc1sc(C(=O)c2ccccc2)c2nn[nH]c(=O)c12
photoluminescence quantum yield (in C1CCOC1): 0.016 | photoluminescence quantum yield (in CC#N): 0.013 | photoluminescence quantum yield (in CCO): 0.0088 | photoluminescence quantum yield (in CN(C)C=O): 0.0057 | photoluminescence quantum yield (in CO): 0.0069 | photoluminescence quantum yield (in CS(C)=O): 0.0056

CC1=NN(c2cccc3ccccc23)[B-](F)(F)[n+]2ccccc21
photoluminescence quantum yield (in ClCCl): 0.07

CC1=[N+]2C(=C(c3ccc(C(=O)c4ccccc4)cc3)c3ccc(C)n3[B-]2(F)F)C=C1c1cc2n(c1)[B-](F)(F)[N+]1=CC=CC1=C2c1c(C)cc(C)cc1C
photoluminescence quantum yield (in C1CCCCC1): 0.47 | photoluminescence quantum yield (in CCOC(C)=O): 0.13

N#Cc1cc2ccc3cc(C#N)c4ccccc4c3c2c2ccccc12
photoluminescence quantum yield (in ClC(Cl)Cl): 0.14

O=[N+]([O-])c1ccc(/C2=C3N=C(C(c4ccccc4)=C/3c3ccccc3)/C(c3ccc([N+](=O)[O-])cc3)=c3\[nH]/c(c(-c4ccccc4)c3-c3ccccc3)=C(/c3ccc([N+](=O)[O-])cc3)C3=N/C(=C(/c4ccc([N+](=O)[O-])cc4)c4[nH]c2c(-c2ccccc2)c4-c2ccccc2)C(c2ccccc2)=C3c2ccccc2)cc1
photoluminescence quantum yield (in ClCCl): 0.003

Cc1cc(-n2c3ccccc3c3cc4c(cc32)C2c3ccccc3C4c3ccccc32)ccc1-c1nc(-c2ccccc2)nc(-c2ccccc2)n1
photoluminescence quantum yield (in Cc1ccccc1): 0.8 | photoluminescence quantum yield [1]: 0.51

COc1cc2c3sc4ccccc4c3c3cncnc3c2c(OC)c1OC
photoluminescence quantum yield (in ClCCl): 0.09

COc1ccc(C2=[N+]3C(=Nc4c(-c5ccccc5)cc(-c5ccc(OC)cc5)n4[B-]3(F)F)C(c3ccccc3)=C2)cc1
photoluminescence quantum yield (in ClC(Cl)Cl): 0.36 | photoluminescence quantum yield (in ClCCl): 0.36

CCCCc1ccc(-n2c3c(c4c2c2c(n4-c4ccc(CCCC)cc4)-c4cc(F)ccc4NB2c2ccccc2)B(c2ccccc2)Nc2ccc(F)cc2-3)cc1
photoluminescence quantum yield (in Cc1ccccc1): 0.64

CC1=CC(/C=C/c2ccc(OCCCN=[N+]=[N-])cc2)=[N+]2C1=C(c1ccccc1)c1c(C)cc(C)n1[B-]2(F)F
photoluminescence quantum yield (in CO): 1

c1ccc(N(c2ccccc2)c2ccc(-c3ccncn3)cc2)cc1
photoluminescence quantum yield (in ClCCl): 0.55

O=P1(c2ccccc2)C2=C(c3ccccc31)[Si](c1ccccc1)(c1ccccc1)c1cc(N(c3ccccc3)c3ccccc3)ccc12 (centres undefined)
photoluminescence quantum yield (in CC#N): 0.52 | photoluminescence quantum yield (in CO): 0.17 | photoluminescence quantum yield (in Cc1ccccc1): 0.86

CCN(CC)c1ccc2c(c1)oc(=O)c1c(C)nc3c(cnn3-c3ccccc3)c12
photoluminescence quantum yield (in C1CCCCC1): 0.931 | photoluminescence quantum yield (in CCOC(C)=O): 0.685 | photoluminescence quantum yield (in CN(C)C=O): 0.37 | photoluminescence quantum yield (in CO): 0.294 | photoluminescence quantum yield (in ClCCl): 0.829

N#Cc1c(-c2ccc(N(c3ccccc3)c3ccccc3)cc2)c(C#N)c(-c2ccc(N(c3ccccc3)c3ccccc3)cc2)c(C#N)c1-c1ccc(N(c2ccccc2)c2ccccc2)cc1
photoluminescence quantum yield [1]: 1

COCCOCCOCCOCC(COCCOCCOCCOC)Oc1cc(/C=C/c2ccc(/C=C(\C#N)c3ccc(C(F)(F)F)cc3)cc2)c(OC(COCCOCCOCCOC)COCCOCCOCCOC)cc1/C=C/c1ccc(/C=C(\C#N)c2ccc(C(F)(F)F)cc2)cc1
photoluminescence quantum yield (in ClCCl): 0.55

N#Cc1ccc(-c2nc(-c3ccccc3)c(-c3ccccc3)[nH]2)cc1
photoluminescence quantum yield (in CO): 0.52

CCCCCCOC(=O)/C=C/C1=CC2=C(c3c(C)cc(C)cc3C)c3cc(/C=C/C(=O)OCCCCCC)cn3[B-](F)(F)[N+]2=C1
photoluminescence quantum yield (in ClCCl): 0.68

O=c1c2ccccc2n(-c2ccc(-c3ccc(-n4c5ccccc5c5ccccc54)cc3)cc2)c2ccccc12
photoluminescence quantum yield (in ClCCl): 0.28

CN(C)CCN(Cc1c2ccccc2c(CN(CCN(C)C)c2ccc([N+](=O)[O-])cc2[N+](=O)[O-])c2ccccc12)c1ccc([N+](=O)[O-])cc1[N+](=O)[O-]
photoluminescence quantum yield (in C1CCOC1): 0.0052 | photoluminescence quantum yield (in CC#N): 0.00153 | photoluminescence quantum yield (in CC(C)=O): 0.0012 | photoluminescence quantum yield (in CCO): 0.0136 | photoluminescence quantum yield (in CN(C)C=O): 0.00067 | photoluminescence quantum yield (in CO): 0.0387

COc1ccc(/C=C/c2cc(/C=C/c3ccc(OC)cc3)nc(/C=C/c3ccc4cc(OC)ccc4c3)n2)cc1
photoluminescence quantum yield (in ClCCl): 0.11

N#CC(C#N)=Cc1ccc(-c2ccc(O)c(-c3nc4ccccc4s3)c2)o1
photoluminescence quantum yield (in CCO): 0.0357 | photoluminescence quantum yield (in ClCCl): 0.016

COc1ccc(-c2nc3ccccc3nc2-c2ccc(OC)cc2)cc1
photoluminescence quantum yield (in ClC(Cl)Cl): 0.18

c1ccc(N(c2ccccc2)c2ccccc2)cc1
photoluminescence quantum yield (in CCO): 0.03

Nc1ccccc1
photoluminescence quantum yield (in C1CCCCC1): 0.1

COc1ccc(-c2ccc(-c3ccc(OC)cc3)cc2)cc1
photoluminescence quantum yield (in C1CCCCC1): 0.64

c1ccc(-n2c(-c3cccc4ccccc34)nc3c4cccc5ccc6cccc(c6c54)c32)cc1
photoluminescence quantum yield (in Cc1ccccc1): 1

COc1ccc(C2=CC(c3ccc4cc(N(C)C)ccc4c3)=[O+][B-](F)(F)O2)cc1
photoluminescence quantum yield (in C1CCOC1): 0.52 | photoluminescence quantum yield (in CC#N): 0.01 | photoluminescence quantum yield (in CC(C)=O): 0.12 | photoluminescence quantum yield (in CS(C)=O): 0.007 | photoluminescence quantum yield (in Cc1ccccc1): 0.95 | photoluminescence quantum yield (in ClC(Cl)Cl): 0.99 | photoluminescence quantum yield (in ClCCl): 0.62

N#Cc1c(-n2cc(-c3ccccc3)nn2)n([C@H]2C[C@H](O)[C@@H](CO)O2)c2ncnc(N)c12
photoluminescence quantum yield (in CO): 0.004
